US10479780B2, “Aminopyrazole derivatives” (Chugai Seiyaku Kabushiki Kaisha, priority 2015, dated 2019)

Columns and labels:
Type in all cases: biochemical
human Src enzyme = target: T1, human Src enzyme (Homo sapiens, UniProt P12931); test: Src enzyme inhibitory activity (time-resolved fluorometry, biotinylated peptide phosphorylation); conditions: biotinylated peptide phosphorylation, read-out: SRC_IC50
T1 construct: purchased Carna Biosciences, Inc. 08-173
Procedure, shortened: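 Compounds were tested for blocking tyrosine phosphorylation of a biotinylated peptide substrate by recombinant human Src. Phosphorylated product was quantified by time-resolved fluorometry using europium cryptate and XL665 conjugates, and IC50 was calculated against the compound-free control.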

human Yes1 enzyme = target: T2, human Yes1 enzyme (Homo sapiens, UniProt P07947); test: Yes1 enzyme inhibitory activity (time-resolved fluorometry, biotinylated peptide phosphorylation); conditions: biotinylated peptide phosphorylation, read-out: YES_IC50
T2 construct: made in house
Procedure, shortened: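 Inhibition was expressed against a compound-free control to give IC50, using TR-FRET read-out (Eu-cryptate anti-pTyr antibody, streptavidin-XL665).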

human Lck enzyme = target: T3, human Lck enzyme (Homo sapiens, UniProt P06239); test: Lck enzyme inhibitory activity (time-resolved fluorometry, biotinylated peptide phosphorylation); conditions: biotinylated peptide phosphorylation, read-out: LCK_IC50
T3 construct: purchased Carna Biosciences, Inc. 08-170
Procedure, shortened: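 Readout pairs a europium cryptate-labelled anti-phosphotyrosine antibody with XL665-streptavidin, measured by time-resolved fluorescence. IC50 derived from percent inhibition against untreated controls.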

T1 sequence (P12931 whole entry): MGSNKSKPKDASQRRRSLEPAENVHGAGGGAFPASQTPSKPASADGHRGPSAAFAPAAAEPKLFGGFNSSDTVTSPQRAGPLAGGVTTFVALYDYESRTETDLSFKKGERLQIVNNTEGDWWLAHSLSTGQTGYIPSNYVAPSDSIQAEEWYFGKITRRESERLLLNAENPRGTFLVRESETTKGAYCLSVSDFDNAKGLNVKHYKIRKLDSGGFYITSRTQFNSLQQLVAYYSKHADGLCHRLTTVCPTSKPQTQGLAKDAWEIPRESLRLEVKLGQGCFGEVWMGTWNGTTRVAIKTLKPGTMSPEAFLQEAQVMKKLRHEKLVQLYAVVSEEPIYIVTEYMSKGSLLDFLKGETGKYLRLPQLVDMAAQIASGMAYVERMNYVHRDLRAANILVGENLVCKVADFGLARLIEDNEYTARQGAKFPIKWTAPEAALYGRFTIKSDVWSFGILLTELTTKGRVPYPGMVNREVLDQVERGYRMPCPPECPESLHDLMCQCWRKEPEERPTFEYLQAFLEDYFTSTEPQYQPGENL
T3 sequence (P06239 whole entry): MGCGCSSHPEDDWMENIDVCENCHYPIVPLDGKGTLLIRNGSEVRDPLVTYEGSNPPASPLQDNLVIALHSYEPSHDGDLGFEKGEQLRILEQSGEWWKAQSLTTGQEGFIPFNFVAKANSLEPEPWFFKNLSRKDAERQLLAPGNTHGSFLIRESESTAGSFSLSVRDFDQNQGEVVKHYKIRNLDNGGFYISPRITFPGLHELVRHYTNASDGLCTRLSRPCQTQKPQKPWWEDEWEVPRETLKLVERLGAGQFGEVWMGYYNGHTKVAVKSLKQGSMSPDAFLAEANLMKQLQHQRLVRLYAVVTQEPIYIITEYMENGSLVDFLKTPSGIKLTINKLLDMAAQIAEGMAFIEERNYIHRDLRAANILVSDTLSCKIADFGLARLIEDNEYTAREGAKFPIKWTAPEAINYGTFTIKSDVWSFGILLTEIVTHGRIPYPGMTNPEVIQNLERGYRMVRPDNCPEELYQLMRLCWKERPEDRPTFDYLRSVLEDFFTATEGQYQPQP
T2 sequence (P07947 whole entry): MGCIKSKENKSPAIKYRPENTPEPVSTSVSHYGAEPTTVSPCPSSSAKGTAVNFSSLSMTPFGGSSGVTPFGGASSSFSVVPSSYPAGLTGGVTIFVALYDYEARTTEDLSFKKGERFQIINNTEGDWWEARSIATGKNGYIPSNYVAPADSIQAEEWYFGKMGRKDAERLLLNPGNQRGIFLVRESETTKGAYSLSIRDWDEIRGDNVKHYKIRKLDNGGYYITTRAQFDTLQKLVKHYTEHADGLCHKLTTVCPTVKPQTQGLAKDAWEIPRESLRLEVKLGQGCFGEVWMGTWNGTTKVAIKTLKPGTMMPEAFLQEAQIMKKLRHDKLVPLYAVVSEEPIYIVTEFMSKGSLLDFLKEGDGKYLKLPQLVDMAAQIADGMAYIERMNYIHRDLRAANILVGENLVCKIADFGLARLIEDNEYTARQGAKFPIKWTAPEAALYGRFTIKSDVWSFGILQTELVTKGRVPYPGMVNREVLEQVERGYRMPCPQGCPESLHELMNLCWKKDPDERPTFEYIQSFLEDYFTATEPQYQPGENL

IC50 (human Src enzyme) [nM] | IC50 (human Yes1 enzyme) [nM] | IC50 (human Lck enzyme) [nM] | SMILES
87 | 1.9 | 15 | COc1ccccc1-c1cc2[nH]c(C(=O)c3cnn(-c4cnc(Oc5c(F)cccc5F)cc4C)c3N)cc2cc1OC1CCN(C2CCCC2)CC1 [Example 5-1-503, [5-amino-1-[6-(2,6-difluorophenoxy)-4-methylpyridin-3-yl]pyrazol-4-yl]-[5-(1-cyclopentylpiperidin-4-yl)oxy-6-(2-methoxyphenyl)-1H-indol-2-yl]methanone]
630 | 3.6 | 140 | Cc1cnc(F)c(S(=O)(=O)Nc2cc3[nH]c(C(=O)c4cnn(-c5cnc(Oc6ccccc6F)cc5C)c4N)cc3cc2C)c1 [Example 5-1-504, N-[2-[5-amino-1-[6-(2-fluorophenoxy)-4-methylpyridin-3-yl]pyrazole-4-carbonyl]-5-methyl-1H-indol-6-yl]-2-fluoro-5-methylpyridine-3-sulfonamide]
470 | 2.5 | 68 | Cc1cc2cc(C(=O)c3cnn(-c4cnc(Oc5ccccc5F)cc4C)c3N)[nH]c2cc1NS(=O)(=O)c1cc(F)ccn1 [Example 5-1-505, N-[2-[5-amino-1-[6-(2-fluorophenoxy)-4-methylpyridin-3-yl]pyrazole-4-carbonyl]-5-methyl-1H-indol-6-yl]-4-fluoropyridine-2-sulfonamide]
500 | 3 | 99 | Cc1ccnc(S(=O)(=O)Nc2cc3[nH]c(C(=O)c4cnn(-c5cnc(Oc6ccccc6F)cc5C)c4N)cc3cc2C)c1 [Example 5-1-506, N-[2-[5-amino-1-[6-(2-fluorophenoxy)-4-methylpyridin-3-yl]pyrazole-4-carbonyl]-5-methyl-1H-indol-6-yl]-4-rmethylpyridine-2-sulfonamide]
480 | 2.8 | 92 | Cc1cccc(S(=O)(=O)Nc2cc3[nH]c(C(=O)c4cnn(-c5cnc(Oc6ccccc6F)cc5C)c4N)cc3cc2C)n1 [Example 5-1-507, N-[2-[5-amino-1-[6-(2-fluorophenoxy)-4-methylpyridin-3-yl]pyrazole-4-carbonyl]-5-methyl-1H-indol-6-yl]-6-methylpyridine-2-sulfonamide]
920 | 4 | 140 | Cc1cc2cc(C(=O)c3cnn(-c4cnc(Oc5ccccc5F)cc4C)c3N)[nH]c2cc1NS(=O)(=O)c1cccc(Cl)n1 [Example 5-1-508, N-[2-[5-amino-1-[6-(2-fluorophenoxy)-4-methylpyridin-3-yl]pyrazole-4-carbonyl]-5-methyl-1H-indol-6-yl]-6-chloropyridine-2-sulfonamide]
840 | 3.7 | 130 | Cc1cc2cc(C(=O)c3cnn(-c4cnc(Oc5ccccc5F)cc4C)c3N)[nH]c2cc1NS(=O)(=O)c1cc(Cl)ccn1 [Example 5-1-509, N-[2-[5-amino-1-[6-(2-fluorophenoxy)-4-methylpyridin-3-yl]pyrazole-4-carbonyl]-5-methyl-1H-indol-6-yl]-4-chloropyridine-2-sulfonamide]
230 | 0.92 | 89 | COc1ccnc(S(=O)(=O)Nc2cc3[nH]c(C(=O)c4cnn(-c5ccc(Oc6ccccc6F)cc5C)c4N)cc3cc2C)c1 [Example 5-1-510, N-[2-[5-amino-1-[4-(2-fluorophenoxy)-2-methylphenyl]pyrazole-4-carbonyl]-5-methyl-1H-indol-6-yl]-4-methoxypyridine-2-sulfonamide]
520 | 2.7 | 240 | COc1ccnc(S(=O)(=O)Nc2cc3[nH]c(C(=O)c4cnn(-c5cnc(Oc6c(F)cccc6F)cc5C)c4N)cc3cc2C)c1 [Example 5-1-511, N-[2-[5-amino-1-[6-(2,6-difluorophenoxy)-4-methylpyridin-3-yl]pyrazole-4-carbonyl]-5-methyl-1H-indol-6-yl]-4-methoxypyridine-2-sulfonamide]
250 | 1.2 | 33 | COc1ccnc(S(=O)(=O)Nc2cc3[nH]c(C(=O)c4cnn(-c5ccc(Oc6ccccc6F)cc5C)c4N)cc3cc2F)c1 [Example 5-1-512, N-[2-[5-amino-1-[4-(2-fluorophenoxy)-2-methylphenyl]pyrazole-4-carbonyl]-5-fluoro-1H-indol-6-yl]-4-methoxypyridine-2-sulfonamide]
510 | 3.7 | 98 | COc1ccnc(S(=O)(=O)Nc2cc3[nH]c(C(=O)c4cnn(-c5cnc(Oc6c(F)cccc6F)cc5C)c4N)cc3cc2F)c1 [Example 5-1-513, N-[2-[5-amino-1-[6-(2,6-difluorophenoxy)-4-methylpyridin-3-yl]pyrazole-4-carbonyl]-5-fluoro-1H-indol-6-yl]-4-methoxypyridine-2-sulfonamide]
760 | 3.3 | 140 | COc1ccnc(S(=O)(=O)Nc2cc3[nH]c(C(=O)c4cnn(-c5cnc(Oc6ccccc6F)cc5C)c4N)cc3cc2F)c1 [Example 5-1-514, N-[2-[5-amino-1-[6-(2-fluorophenoxy)-4-methylpyridin-3-yl]pyrazole-4-carbonyl]-5-fluoro-1H-indol-6-yl]-4-methoxypyridine-2-sulfonamide]
280 | 2.4 | 59 | Cc1cc2cc(C(=O)c3cnn(-c4ccc(Oc5ccccc5F)cc4C)c3N)[nH]c2cc1NS(=O)(=O)c1cccc(F)n1 [Example 5-1-515, N-[2-[5-amino-1-[4-(2-fluorophenoxy)-2-methylphenyl]pyrazole-4-carbonyl]-5-methyl-1H-indol-6-yl]-6-fluoropyridine-2-sulfonamide]
540 | 5.1 | 91 | Cc1cc2cc(C(=O)c3cnn(-c4cnc(Oc5c(F)cccc5F)cc4C)c3N)[nH]c2cc1NS(=O)(=O)c1cccc(F)n1 [Example 5-1-516, N-[2-[5-amino-1-[6-(2,6-difluorophenoxy)-4-methylpyridin-3-yl]pyrazole-4-carbonyl]-5-methyl-1H-indol-6-yl]-6-fluoropyridine-2-sulfonamide]
300 | 2.1 | 34 | Cc1cc(Oc2ccccc2F)ccc1-n1ncc(C(=O)c2cc3cc(F)c(NS(=O)(=O)c4cccc(F)n4)cc3[nH]2)c1N [Example 5-1-517, N-[2-[5-amino-1-[4-(2-fluorophenaxy)-2-methylphenyl]pyrazole-4-carbonyl]-5-fluoro-1H-indol-5-yl]-6-fluoropyridine-2-sulfonamide]
570 | 5.8 | 82 | Cc1cc(Oc2c(F)cccc2F)ncc1-n1ncc(C(=O)c2cc3cc(F)c(NS(=O)(=O)c4cccc(F)n4)cc3[nH]2)c1N [Example 5-1-518, N-[2-[5-amino-1-[6-(2,6-difluorophenoxy)-4-methylpyridin-3-yl]pyrazole-4-carbonyl]-5-fluoro-1H-indol-6-yl]-6-fluoropyridine-2-sulfonamide]
710 | 4.6 | 120 | Cc1cc(Oc2ccccc2F)ncc1-n1ncc(C(=O)c2cc3cc(F)c(NS(=O)(=O)c4cccc(F)n4)cc3[nH]2)c1N [Example 5-1-519, N-[2-[5-amino-1-[6-(2-fluorophenoxy)-4-methylpyridin-3-yl]pyrazole-4-carbonyl]-5-fluoro-1H-indol-6-yl]-6-fluoropyridine-2-sulfonamide]
